Laboratory results from patent publication US8124624B2, “Substituted sulfonamide compounds” (Gruenenthal GmbH, priority 2008, dated 2012).
Like-named read-outs stand apart in the source and are kept apart here.

Tests used:
[1] = target: T1, B1R of the rat (Rattus norvegicus, UniProt P97583); experiment: FLIPR Ca2+ influx assay, B1R antagonism, rat (rB1R CHO K1 cells); format: cell-based
T1 construct: expressed in transfected cells; host or cells: CHO K1 cells (rB1R cells)
T1 sequence (P97583 1-337): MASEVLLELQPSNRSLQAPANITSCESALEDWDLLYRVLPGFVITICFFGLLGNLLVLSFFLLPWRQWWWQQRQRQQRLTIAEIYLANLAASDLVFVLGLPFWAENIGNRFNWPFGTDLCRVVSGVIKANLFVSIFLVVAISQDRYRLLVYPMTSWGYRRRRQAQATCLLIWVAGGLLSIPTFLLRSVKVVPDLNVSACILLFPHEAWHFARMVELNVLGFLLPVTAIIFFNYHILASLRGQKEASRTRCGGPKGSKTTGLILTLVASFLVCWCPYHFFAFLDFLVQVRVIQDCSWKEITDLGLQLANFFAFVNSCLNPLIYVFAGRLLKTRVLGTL
Procedure: (§1) The agonistic or antagonistic action of substances can be quantified on the bradykinin receptor 1 (B1R) of the species human and rat using ectopically expressing cell lines (CHO K1 cells) and with the aid of a Ca^2+-sensitive dye (Fluo-4) using a fluorescent imaging plate reader (FLIPR). The indication in % activation is based on the Ca^2+ signal after addition of Lys-Des-Arg^9-bradykinin (0.5 nM) or Des-Arg^9-bradykinin (100 nM). Antagonists lead to suppression of the Ca^2+ influx after the addition of the agonist. % Inhibition compared with the maximum achievable inhibition is indicated.
(§2) The agonistic or antagonistic action of substances can be determined on the bradykinin receptor 1 (B1R) of the species human and rat using the following assay. According to this assay, the Ca^2+ influx through the channel is quantified with the aid of a Ca^2+-sensitive dye (Fluo-4 type, Molecular Probes Europe BV, Leiden, Netherlands) using a Fluorescent Imaging Plate Reader (FLIPR, Molecular Devices, Sunnyvale, USA).
(§3) Chinese hamster ovary cells (CHO K1 cells) which have been stably transfected with the human B1R gene (hB1R cells) or with the B1R gene of the rat (rB1R cells) are used. For functional studies, the cells are plated out on black 96-well plates having a clear base (BD Biosciences, Heidelberg, Germany or Greiner, Frickenhausen, Germany) in a density of 20,000-35,000 cells/well. The cells are incubated overnight at 37° C. and with 5% CO2 in culture medium (hB1R cells: Nutrient Mixture Ham's F12, Gibco Invitrogen GmbH, Karlsruhe, Germany or DMEM, Sigma-Aldrich, Taufkirchen, Germany; rB1R cells: D-MEM/F12, Gibco Invitrogen GmbH, Karlsruhe, Germany), with 10 vol. % FBS (fetal bovine serum, Gibco Invitrogen GmbH, Karlsruhe, Germany or PAN Biotech GmbH, Aidenbach, Germany).
(§4) On the following day, the cells are loaded for 60 minutes at 37° C. with 2.13 μM Fluo-4 (Molecular Probes Europe BV, Leiden, Netherlands) in HBSS buffer (Hank's buffered saline solution, Gibco Invitrogen GmbH, Karlsruhe, Germany) […] (Sigma-Aldrich, Taufkirchen, Germany) and 10 mM HEPES (Sigma-Aldrich, Taufkirchen, Germany). The plates are then washed twice with HBSS buffer, and HBSS buffer additionally containing 0.1% BSA (bovine serum albumin; Sigma-Aldrich, Taufkirchen, Germany), 5.6 mM glucose and 0.05% gelatin (Merck KGaA, Darmstadt, Germany) is added to the plates. After incubation for a further 20 minutes at room temperature, the plates are inserted into the FLIPR for Ca^2+ measurement.
(§5) Alternatively, washing is carried out with buffer A (15 mM HEPES, 80 mM NaCl, 5 mM KCl, 1.2 mM CaCl2, 0.7 mM MgSO4, 2 g/l glucose, 2.5 mM probenecid) followed by loading with buffer A with added 2.5 μM Fluo-4 and 0.025% Pluronic F127 (Sigma-Aldrich, Taufkirchen, Germany). The cells are then washed twice with buffer A and incubated for 30 minutes at room temperature with buffer A additionally containing 0.05% BSA and 0.05% gelatin and are then inserted into the FLIPR for Ca^2+ measurement.
(§6) The Ca^2+-dependent fluorescence is measured before and after the addition of substances (λex=488 nm, λem=540 nm). Quantification is carried out by measuring the highest fluorescence intensity (FC, fluorescence counts) over time.
(§7) The FLIPR protocol consists of two substance additions. Test substances (10 μM) are first pipetted onto the cells and the Ca^2+ influx is compared with the control (hB1R: Lys-Des-Arg^9-bradykinin >=50 nM; rB1R: Des-Arg^9-bradykinin 10 μM). This gives the activation in %, based on the Ca^2+ signal after addition of Lys-Des-Arg^9-bradykinin (>=50 nM) or Des-Arg^9-bradykinin (10 μM). After 10-20 minutes' incubation, Lys-Des-Arg^9-bradykinin (hB1R) or Des-Arg^9-bradykinin (rB1R) is applied in the concentration of the EC80, and the influx of Ca^2+ is likewise determined. Antagonists lead to suppression of the Ca^2+ influx. The % inhibition compared with the maximum achievable inhibition is calculated. […]

[2] = target: T2, human B1R (Homo sapiens, UniProt P46663); experiment: FLIPR Ca2+ influx assay, B1R antagonism, human (hB1R CHO K1 cells); format: cell-based
T2 construct: expressed in transfected cells; host or cells: CHO K1 cells (hB1R cells)
T2 sequence (P46663 1-353): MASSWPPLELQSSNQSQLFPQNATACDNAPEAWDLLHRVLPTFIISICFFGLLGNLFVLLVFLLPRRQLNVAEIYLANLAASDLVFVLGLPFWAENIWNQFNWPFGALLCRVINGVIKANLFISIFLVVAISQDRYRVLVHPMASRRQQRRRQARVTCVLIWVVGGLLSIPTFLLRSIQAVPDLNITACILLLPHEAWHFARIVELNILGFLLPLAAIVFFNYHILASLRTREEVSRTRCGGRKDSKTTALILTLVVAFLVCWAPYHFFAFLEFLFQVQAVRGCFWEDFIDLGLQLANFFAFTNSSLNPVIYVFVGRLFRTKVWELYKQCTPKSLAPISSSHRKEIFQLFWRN
Procedure: as §1, §2, §3, §4, §5, §6, §7

[3] = test substance 10 μM, CHO K1 cells stably transfected with rat B1R, agonist Des-Arg9-bradykinin at EC80, % inhibition compared with maximum achievable inhibition, read-out: B1R antagonism, rat [10 μM] % inhibition
[4] = test substance 10 μM, CHO K1 cells stably transfected with rat B1R, agonist Des-Arg9-bradykinin at EC80, % inhibition compared with maximum achievable inhibition

Compound | inhibition at 10 µM [1, 3] [%] | B1R antagonism, rat [10 μM] % inhibition [1, 4] [%] | other results
O=C(CC(NS(=O)(=O)c1ccc2ccccc2c1)c1ccccc1)N1CCC(CCN2CCCC2)(c2cccnc2)CC1 (stereo not shown) [Example 1, N-(3-Oxo-1-phenyl-3-(4-(pyridin-3-yl)-4-(2-(pyrrolidin-1-yl)ethyl)piperidin-1-yl)propyl)naphthalene-2-sulfonamide] | 63 | – | inhibition at 10 µM ([2]; test substance 10 μM, CHO K1 cells stably transfected with human B1R, agonist Lys-Des-Arg9-bradykinin at EC80, % inhibition compared with maximum achievable inhibition, read-out: B1R antagonism, human [10 μM] % inhibition): 104%
COc1cc(C)c(S(=O)(=O)N2CCCCC2COCC(=O)N2CCC(CCN3CCCC3)(c3cccnc3)CC2)c(C)c1 (stereo not shown) [Example 2, 2-((1-(4-Methoxy-2,6-dimethylphenylsulfonyl)piperidin-2-yl)methoxy)-1-(4-(pyridin-3-yl)-4-(2-(pyrrolidin-1-yl)ethyl)piperidin-1-yl)ethanone] | – | – | inhibition at 10 µM ([1]; CHO-K1, read-out: B1R antagonism, rat [10 μM] % inhibition): 102%; inhibition at 10 µM ([2]; CHO-K1, read-out: B1R antagonism, human [10 μM] % inhibition): 103%
COc1cc(C)c(S(=O)(=O)N2c3ccccc3CCC2COCC(=O)N2CCC(CCCN3CCCC3)(c3cccnc3)CC2)c(C)c1 (stereo not shown) [Example 54, 2-[[1-[(4-Methoxy-2,6-dimethyl-phenyl)sulfonyl]-1,2,3,4-tetrahydro-quinolin-2-yl]-methoxy]-1-[4-pyridin-3-yl-4-(3-pyrrolidin-1-yl-propyl)-piperidin-1-yl]-ethanone] | – | – | B1R antagonism, human [10 μM] % inhibition ([2]; test substance 10 μM, CHO K1 cells stably transfected with human B1R, agonist Lys-Des-Arg9-bradykinin at EC80, % inhibition compared with maximum achievable inhibition): 100%
CS(=O)(=O)N(CCOCC(=O)N1CCC(CCCN2CCCC2)(c2ccncc2)CC1)C(c1ccccc1)c1ccccc1 [Example 65, N-Benzhydryl-N-[2-[2-oxo-2-[4-pyridin-4-yl-4-(3-pyrrolidin-1-yl-propyl)-piperidin-1-yl]-ethoxy]-ethyl]-methanesulfonic acid amide] | – | 63 | –
CS(=O)(=O)N(CCOCC(=O)N1CCC(CCCN2CCCC2)(c2ccncc2)CC1)C(c1ccccc1)c1ccccc1 [Example 66, N-Benzhydryl-N-[2-[2-oxo-2-[4-pyridin-4-yl-4-(3-pyrrolidin-1-yl-propyl)-piperidin-1-yl]-ethoxy]-ethyl]-methanesulfonic acid amide] | – | 99 | –
COc1cc(C)c(S(=O)(=O)N2c3ccccc3OCC2COCC(=O)N2CCC(CCCN3CCCC3)(c3ccncc3)CC2)c(C)c1 (stereo not shown) [Example 69, 2-[[4-[(4-Methoxy-2,6-dimethyl-phenyl)sulfonyl]-3,4-dihydro-2H-[1,4]benzoxazin-3-yl]-methoxy]-1-[4-pyridin-4-yl-4-(3-pyrrolidin-1-yl-propyl)-piperidin-1-yl]-ethanone] | 99 | – | –
COc1cc(C)c(S(=O)(=O)N2c3ccccc3OCC2COCC(=O)N2CCC(CCCN3CCCC3)(c3ccncc3)CC2)c(C)c1 (stereo not shown) [Example 70, 2-[[4-[(4-Methoxy-2,6-dimethyl-phenyl)sulfonyl]-3,4-dihydro-2H-[1,4]benzoxazin-3-yl]-methoxy]-1-[4-pyridin-4-yl-4-(3-pyrrolidin-1-yl-propyl)-piperidin-1-yl]-ethanone] | – | 100 | –
O=C(COCC1COc2ccccc2N1S(=O)(=O)c1ccccc1C(F)(F)F)N1CCC(CCCN2CCCC2)(c2cccnc2)CC1 (stereo not shown) [Example 73, 1-[4-Pyridin-3-yl-4-(3-pyrrolidin-1-yl-propyl)-piperidin-1-yl]-2-[[4-[[2-(trifluoromethyl)-phenyl]sulfonyl]-3,4-dihydro-2H-[1,4]benzoxazin-3-yl]-methoxy]-ethanone] | 84 | – | –
COc1cc(C)c(S(=O)(=O)N(CCOCC(=O)N2CCC(CCCN3CCCC3)(c3ccncc3)CC2)Cc2ccc3c(c2)OCOC3)c(C)c1 [Example 76, N-(4H-[1,3]Benzodioxin-7-yl-methyl)-4-methoxy-2,6-dimethyl-N-[2-[2-oxo-2-[4-pyridin-4-yl-4-(3-pyrrolidin-1-yl-propyl)-piperidin-1-yl]-ethoxy]-ethyl]-benzenesulfonic acid amide] | 101 | – | –

Second part, led by results:

inhibition at 10 µM [1, 3] [%] | B1R antagonism, rat [10 μM] % inhibition [1, 4] [%] | Compound | other results
– | 101 | O=C(CCCC1CCCCN1S(=O)(=O)c1ccccc1C(F)(F)F)N1CCC(CCCN2CCCC2)(c2ccncc2)CC1 (stereo not shown) [Example 59, 1-[4-Pyridin-4-yl-4-(3-pyrrolidin-1-yl-propyl)-piperidin-1-yl]-4-[1-[[2-(trifluoromethyl)-phenyl]sulfonyl]-piperidin-2-yl]-butan-1-one] | –
100 | – | COc1cc(C)c(S(=O)(=O)N2CCCCC2CCCC(=O)N2CCC(CCCN3CCCC3)(c3ccncc3)CC2)c(C)c1 (stereo not shown) [Example 62, 4-[1-[(4-Methoxy-2,6-dimethyl-phenyl)sulfonyl]-piperidin-2-yl]-1-[4-pyridin-4-yl-4-(3-pyrrolidin-1-yl-propyl)-piperidin-1-yl]-butan-1-one] | –
– | 102 | COc1cc(C)c(S(=O)(=O)N2CCCCC2CCCC(=O)N2CCC(CCCN3CCCC3)(c3ccncc3)CC2)c(C)c1 (stereo not shown) [Example 63, 4-[1-[(4-Methoxy-2,6-dimethyl-phenyl)sulfonyl]-piperidin-2-yl]-1-[4-pyridin-4-yl-4-(3-pyrrolidin-1-yl-propyl)-piperidin-1-yl]-butan-1-one] | –
46 | – | O=C(CCCC1CCCCN1S(=O)(=O)c1cccc2ccccc12)N1CCC(CCCN2CCCC2)(c2ccncc2)CC1 (stereo not shown) [Example 64, 4-[1-(Naphthalen-1-ylsulfonyl)-piperidin-2-yl]-1-[4-pyridin-4-yl-4-(3-pyrrolidin-1-yl-propyl)-piperidin-1-yl]-butan-1-one] | –
68 | – | O=C(COCC1COc2ccccc2N1S(=O)(=O)c1ccccc1C(F)(F)F)N1CCC(CCCN2CCCC2)(c2ccncc2)CC1 (stereo not shown) [Example 75, 1-[4-Pyridin-4-yl-4-(3-pyrrolidin-1-yl-propyl)-piperidin-1-yl]-2-[[4-[[2-(trifluoromethyl)-phenyl]sulfonyl]-3,4-dihydro-2H-[1,4]benzoxazin-3-yl]-methoxy]-ethanone] | –
